The values below come from patent publication US11104657B2, “Notch inhibitors for use in the treatment of t-cell acute lymphoblastic leukemia” (UNIVERSITÀ DEGLI STUDI DI ROMA “LA SAPIENZA”, priority 2016, dated 2021).

Like-named read-outs stand apart in the source and are kept apart here.

Test [1] relates to DND41 cells. The experiment in a line: MTS cell proliferation assay (IG50), DND41. The format is cell-based, human. The conditions noted are these: for effect on cell proliferation: doses of up to 50 μM. The procedure: In order to evaluate the biological implications of the compounds, their effect on cell proliferation/vitality was tested by determining the relative concentrations of growth inhibition (IG50) by means of the MTS cellular assay.
The cell lines DND41 (ACC 525, DSMZ, Braunschweig, GERMANY), KOPTK1 (RRID: CVCL_4965) were maintained in culture in RPMI-1640 (Gibco, Carlsbad, Calif., USA) with 10% fetal bovine serum. TALL-1 cells (ACC-521: DSMZ, Braunschweig, GERMANY) were cultured in RPMI-1640 (Gibco, Carlsbad, Calif., USA) supplemented with 20% fetal bovine serum, while HaCaT cells (ACC-771: DSMZ, Braunschweig, GERMANY) were maintained in Eagle's culture medium according to Dulbecco (Gibco, Carlsbad, Calif., USA) containing 10% fetal bovine serum. Cells were treated with the naturally-occurring compounds A-H or with compounds 1-17 for times and concentrations indicated in the text.
Cells were seeded in 96-well plates with a density of 5×10^5 cells/ml (5×10^4 cells per well) and treated for the times and the concentrations of the various compounds, as indicated in the text.
All treatments were carried out in triplicate, including control treatments. All treatment reactions contained a final concentration of 1% DMSO (D5879; Sigma-Aldrich, St Louis, Mo., USA). To quantify vitality, cells were assayed by the MTS CellTiter 96® AQueous One Solution Cell Proliferation Assay (G3580; Promega, Madison, Wis., USA). Absorbance was detected at 490 nm using the GloMax Multidetection System instrument (Promega, Madison, Wis., USA). Data were collected in the form of absorbance units (ABSs) and standardized to obtain the proliferation rate (MTS) through the equation: % cell proliferation=(ABScell culture+compound−ABSculture medium+compound/(ABScell culture+DMSO−ABSculture medium+DMSO)×100.
The 50% inhibition concentration was calculated using the GraphPad Prism software program (GraphPad Software Inc., La Jolla, Calif., USA).
In general terms: Tetrazolium assays rely on reduction of a dye to a coloured formazan, in cell work by metabolically active cells.

Test [2] has as its system Notch signaling (N1VAL, N3ICD) in DND41 cells. The experiment in a line: Western blot of N1VAL and N3ICD expression in DND41 cells. The format is cell-based, human. The procedure:
In order to identify new naturally-occurring molecular agents able to modulate Notch signaling, the effects on protein expression of the activated domain of Notch1 (N1VAL), and of the intracellular domain of Notch3 (N3ICD), were evaluated in DND41 cells through
Western blotting assays, following treatment for 36 hours with increasing concentrations (0, 1, 5, 10, 20, 50 μM) of the eight molecules (A-H) previously selected. Functional biochemical screening was performed on T-ALL DND41 cells because they are notoriously sensitive to the block of Notch signaling, and characterized by the constitutive and ligand-independent activation of the Notch1 pathway and by the high expression of Notch3. This makes this cell line a useful experimental model for screening putative Notch inhibitors.
In order to investigate the activity and selectivity of action of the 12 synthetic derivatives of butein, and following the screening scheme described in the first design phase, the efficacy of these molecules was analyzed by verifying the effects of 36 hours of treatment at increasing doses on the activation of Notch signaling and on the proliferation in DND41 cells.
Laemmli Sample Buffer (161-0737; Bio-Rad Laboratories Inc., Hercules, Calif., USA) was added to each cell pellet. Cells were lysed by ultrasonic sonication and to each mixture 5% 2-mercaptoethanol (161-0710; Bio-Rad Laboratories Inc., Hercules, Calif., USA) was added. Samples were denatured at 100° C. for 5 min and protein mixtures were separated by means of Sodium Dodecyl Sulphate-Polyacrylamide Gel Electrophoresis using 8% acrylamide and transferred onto nitrocellulose membranes. After transfer, the membranes pre-saturated in 5% Blot Dry Fat Milk (1706404; Bio-Rad Laboratories Inc., Hercules, Calif., USA) were incubated for 16 hours at +4° C. with the following primary antibodies diluted at 1:1000 in 5% Dry Fat Milk (1706404; Bio-Rad Laboratories Inc., Hercules, Calif., USA): Notch1Val1744 (2421; Cell Signaling Technology, Beverly, Mass., USA), Notch3 (2889; Cell Signaling Technology, Beverly, Mass., USA) and β-actin (sc-47778; Santa Cruz Biotechnology, Santa Cruz, Calif., USA). Subsequently, filters were incubated for 1 hour at room temperature with the following secondary antibodies: anti-rabbit (sc-2004, Santa Cruz Biotechnology, Santa Cruz, Calif., USA) or anti-mouse (sc-2005, Santa Cruz Biotechnology, Santa Cruz, Calif., USA). Chemiluminescence signal detection was performed using the ECL Advanced Detection System substrate (RPN2135; E Healthcare UK Limited, Buckinghamshire, UK).
(In general: Immunoblotting shows a protein as a band on a membrane.)

Setting [3] is: Homo sapiens, 36-hour treatments in DND41 cells, mean of triplicate experiments ± S.D., Table 1, read-out: IG50 S.D.
The mark [4] stands for this setting: Homo sapiens, 36-hour treatments in DND41 cells, mean of triplicate experiments ± S.D., Table 2, read-out: IG50 ± S.D.
Setting [5] is: Homo sapiens, DND41 cells, MTS assay, 36 hours of treatment, read-out: IG50 (growth inhibition).
Where [6] appears, read: DND41 cells, 36 hours, Western blot.

Consider `CC(C)(O)C1Cc2c(ccc3ccc(=O)oc23)O1` (stereo in doubt) [Compound E, (8R)-8-(2-hydroxypropane-2-yl)-8,9-dihydrofuran[2,3-h]chromen-2-one, reference compound], for which, in test [1] (DND41 cells), the “effect on cell proliferation” value is on record as “do not significantly affect cell proliferation”. The IC50 in test [1] (setting [3]) was more than 50 µM. Also, in test [2] (DND41 cells, 36 hours, 0-50 μM, Western blot), the “effect on the expression of N1VAL” value was “did not significantly modulate”.
With `COc1ccc(C(=O)/C=C/c2ccc(OC)c(OC)c2)c(OC)c1` [Compound 1, 2′,3,4,4′-tetramethoxychalcone], the IC50 in test [1] (setting [4]) was 15 ± 3.04 µM.
Same read-out and setting: the result for `COc1ccc(C(=O)/C=C/c2ccc(OC)c(OC)c2)c(O)c1` [Compound 2, 2′-hydroxy-3,4,4′-trimethoxychalcone] reads 31 ± 5.98 µM.
Turning to `COc1ccc(/C=C/C(=O)c2ccc(OC)cc2O)cc1` [Compound 3, 2′-hydroxy-4,4′-dimethoxychalcone], the IC50 in test [1] (setting [4]) came to 47.5 ± 1.14 µM.
In the case of `COc1ccc(/C=C/C(=O)c2ccc(OC)cc2OC)cc1` [Compound 4, 2′,4,4′-trimethoxychalcone], the IC50 in test [1] (setting [4]) was found to be 14.4 ± 2.56 µM.
Consider `COc1ccc(C(=O)/C=C/c2ccc(OC)c(O)c2)c(O)c1` [Compound 5, 2′,3-dihydroxy-4,4′-dimethoxychalcone], for which, in test [1] (setting [4]), the IC50 amounted to 36.2 ± 10.6 µM.
Turning to `COc1ccc(C(=O)/C=C/c2ccc(OC)c(OC3CCCCO3)c2)c(O)c1` (centres unmarked) [Compound 5a, 2′-hydroxy-4,4′-dimethoxy-3-(tetrahydropyran-2-yloxy) chalcone], the IC50 in test [1] (setting [4]) was more than 50 µM.
On to `COc1ccc(/C=C/C(=O)c2ccc(OC3CCCCO3)cc2O)cc1OC` (centres unmarked) [Compound 6a, 2′-hydroxy-3,4-dimethoxy-4′-(tetrahydropyran-2-yloxy)chalcone], for which, in test [1] (setting [4]), the IC50 is more than 50 µM.
For the molecule `COc1ccc(C(=O)/C=C/c2ccc(O)c(OC)c2)c(O)c1` [Compound 7, 2′,4-dihydroxy-3,4′-dimethoxychalcone], the IC50 in test [1] (setting [4]) stood at 33.1 ± 1.89 µM.
On to `COc1ccc(C(=O)/C=C/c2ccc(OC3CCCCO3)c(OC)c2)c(O)c1` (centres unmarked) [Compound 7a, 2′-hydroxy-3,4′-dimethoxy-4-(tetrahydropyran-2-yloxy)chalcone], for which, in test [1] (setting [4]), the IC50 amounted to 24.4 ± 1.76 µM.
For the molecule `COc1ccc(C(=O)/C=C/c2ccc(OC3CCCCO3)cc2)c(O)c1` (centres unmarked) [Compound 8a, 2′-hydroxy-4′-methoxy-4-(tetrahydropyran-2-yloxy)chalcone], the IC50 in test [1] (setting [4]) was determined as 48.5 ± 3.42 µM.
With `COc1ccc(C(=O)CCc2ccc(O)cc2)c(O)c1` [Compound 8b, 2′,4-dihydroxy-4′-methoxydihydrochalcone], in test [1] (36-hour treatments in DND41 cells, mean of triplicate experiments ± S.D., Table 2, read-out: IG50 ± S.D.), the IC50 was more than 50 µM.
On to `COc1ccc(C(=O)/C=C/c2ccccc2)c(O)c1` [Compound 9, 2′-hydroxy-4′-methoxychalcone], for which the IC50 in test [1] (setting [4]) stood at 11.1 ± 0.59 µM.
With `COc1cccc(/C=C/C(=O)c2ccc(OC)cc2O)c1` [Compound 10, 2′-hydroxy-3,4′-dimethoxychalcone], in test [1] (setting [4]), the IC50 came to 21.3 ± 1.72 µM.
Consider `COc1ccc(C(=O)/C=C/c2cccc(O)c2)c(O)c1` [Compound 11, 2′,3-dihydroxy-4′-methoxychalcone], for which, in test [1] (setting [4]), the IC50 is 13.6 ± 1.76 µM.
In the case of `COc1ccc(C(=O)/C=C/c2cccc(OC3CCCCO3)c2)c(O)c1` (centres unmarked) [Compound 11a, 2′-hydroxy-4′-methoxy-3-(tetrahydropyran-2-yloxy)chalcone], the IC50 in test [1] (setting [4]) is 17.4 ± 1.2 µM.
Regarding `COc1ccc(C(=O)/C=C/c2ccccc2O)c(O)c1` [Compound 12, 2,2′-dihydroxy-4′-methoxychalcone], in test [1] (setting [4]), the IC50 came out at 14.2 ± 0.58 µM.
Turning to `COc1ccc(C(=O)/C=C/c2ccccc2OC)c(O)c1` [Compound 13, 2′-hydroxy-2,4′-dimethoxychalcone], the IC50 in test [1] (setting [4]) worked out at 21.8 ± 1.78 µM.
Consider `O=C(/C=C/c1ccc(O)cc1)c1ccccc1O` [Compound 14, 2′,4-dihydroxychalcone], for which the IC50 in test [1] (setting [4]) stood at 16.5 ± 0.9 µM.
Consider `O=C(/C=C/c1ccc(OC2CCCCO2)cc1)c1ccccc1O` (centres unmarked) [Compound 14a, 2′-hydroxy-4-(tetrahydropyran-2-yloxy)chalcone], for which, in test [1] (setting [4]), the IC50 amounted to 48.6 ± 3.42 µM.
For `COc1ccccc1C(=O)/C=C/c1ccc(O)cc1` [Compound 15, 4-hydroxy-2′-methoxychalcone], the IC50 in test [1] (setting [4]) turned out to be 16.8 ± 2.71 µM.
Turning to `COc1ccccc1C(=O)/C=C/c1ccc(OC2CCCCO2)cc1` (centres unmarked) [Compound 15a, 2′-methoxy-4-(tetrahydropyran-2-yloxy)chalcone], in test [1] (setting [4]), the IC50 was 31.5 ± 1.46 µM.
As for `COc1ccc(C(=O)/C=C/c2ccc(O)cc2)c(OC)c1` [Compound 16, 4-hydroxy-2′,4′-dimethoxychalcone], the IC50 in test [1] (setting [4]) is 13.8 ± 0.61 µM; in test [1] (setting [5]), more than 13 µM. Moreover, in test [2] (setting [6]), the “concentration at which expression of N1VAL and N3ICD is decreased” value was 2.5 µM.
For `COc1ccc(C(=O)/C=C/c2ccc(OC3CCCCO3)cc2)c(OC)c1` (centres unmarked) [Compound 16a, 2′,4′-dimethoxy-4-(tetrahydropyran-2-yloxy)chalcone], the IC50 in test [1] (setting [4]) stood at 32.6 ± 0.92 µM.
`COc1ccc(C(=O)/C=C/c2ccc(O)cc2)cc1` [Compound 17, 4-hydroxy-4′-methoxychalcone]: the IC50 in test [1] (setting [4]) is 19.5 ± 0.56 µM; in test [1] (setting [5]), more than 13 µM. Also, the “concentration at which expression of N1VAL and N3ICD is decreased” value in test [2] (setting [6]) is 2.5 µM.
In the case of `COc1ccc(C(=O)/C=C/c2ccc(OC3CCCCO3)cc2)cc1` (centres unmarked) [Compound 17a, 4′-methoxy-4-(tetrahydropyran-2-yloxy)chalcone], the IC50 in test [1] (setting [4]) was found to be 28.8 ± 0.29 µM.
As to `O=C1c2c(O)cc(O)cc2O[C@H](c2ccc(O)c(O)c2)[C@H]1O` [Compound A, (2R,3R)-2-(3,4-dihydroxyphenyl)-3,5,7-trihydroxy-2,3-dihydrochromen-4-one, reference compound], in test [1] (DND41 cells), the “effect on cell proliferation” value was “do not significantly affect cell proliferation”. Further, in test [1] (setting [3]), the IC50 is more than 50 µM.
For the molecule `CC(C)=CCc1c(O)ccc(C(=O)/C=C/c2ccc(O)cc2)c1O` [Compound B, (E)-1-[2,4-dihydroxy-3-(3-methylbut-2-enyl)phenyl]-3-(4-hydroxyphenyl) prop-2-en-1-one, reference compound], the values for the IC50 in test [1] (setting [3]) and in test [1] (setting [5]) were 13.9 µM and 13.9 ± 2.7 µM, respectively. Further, the “inhibitory activity of Notch” value in test [2] (screening carried out by the present inventors) is “did not show any inhibitory activity”.
For the molecule `O=C(/C=C/c1ccc(O)c(O)c1)c1ccc(O)cc1O` [Compound C, (E)-1-(2,4-dihydroxyphenyl)-3-(3,4-dihydroxyphenyl)prop-2-en-1-one, reference compound], the values for the IC50 in test [1] (setting [3]) and in test [1] (setting [5]) were 7.79 µM and 7.79 ± 1.73 µM, respectively.
As to `O=c1c(O)c(-c2ccccc2)oc2cc(O)cc(O)c12` [Compound H, 3,5,7-trihydroxy-2-phenylchromen-4-one, reference compound], the IC50 in test [1] (setting [3]) amounted to 22.6 µM; in test [1] (setting [5]), 22.6 ± 1.89 µM.
